Test results published in US20230310386A1, “INJECTABLE PHARMACEUTICAL COMPOSITIONS AND USES THEREOF” (Intervet Inc., priority 2020, published 2023).
“And” between values parts separate entries of the source, which are not always exact repeats. Equal values may be shown once.

Assay: Dose accuracy study of the reconstituted composition comprising moxidectin and fluralaner
Type: physicochemical
Details: reconstituted composition of Example 9, 1 mL doses #1-6
Procedure: The vial comprising moxidectin microspheres from Example 3 and fluralaner particles from Example 7 were reconstituted with 17 mL of the aqueous carrier of Example 6. During reconstitution the vial containing the moxidectin microspheres and fluralaner particles was rotated while being held horizontally throughout carrier addition.
Once all the carrier was added, the vial was shaken for 1 minute.
Herein, the vial with the reconstituted composition as described above was manipulated in one of the following ways: • vigorously hand shaken for 1, 2 or 3 minutes prior to sampling; • vigorously hand shaken for 3 minutes and mixed using the syringe 5 times prior to sampling; or • vigorously hand shaken for 3 minutes, mixed using the syringe 5 times and vortexed for […] prior to sampling.
After the solid material was completely suspended, six 1 mL doses were sampled from the vial. Prior to each dose, the vial was vigorously shaken for 15 seconds to avoid settling between samples.
Each of the six doses were transferred to a separate 50 mL volumetric flask along with 10 mL of water: then the samples were diluted to volume with 50/50 acetonitrile/isopropanol and sonicated for 20 minutes.
These samples were analysed to determine the moxidectin concentration.
Additionally, 1 mL of the samples were transferred into separate 25 mL volumetric flasks and diluted with 40/40/20 acetonitrile/isopropanol/water. The fluralaner concentrations were determined from these diluted samples.

## Cc1cc(C2=NOC(c3cc(Cl)cc(Cl)c3)(C(F)(F)F)C2)ccc1C(=O)NCC(=O)NCC(F)(F)F (centres unmarked) [Fluralaner, 4-[5-(3,5-dichlorophenyl)-5-trifluoromethyl-4,5-dihydroisoxazol-3-yl]-2-methyl-N-[(2,2,2-trifluoro-ethylcarbamoyl)-methyl]-benzamide]
Hand shaken for 1 minute
  Fluralaner Percent Label Claim: 104.38 Percent Label Claim and 90.80 Percent Label Claim and 102.68 Percent Label Claim and 101.83 Percent Label Claim and 106.97 Percent Label Claim and 103.52 Percent Label Claim
Hand shaken for 2 minutes
  Fluralaner Percent Label Claim: 80.44 Percent Label Claim and 103.67 Percent Label Claim and 102.82 Percent Label Claim and 84.95 Percent Label Claim and 99.01 Percent Label Claim and 107.40 Percent Label Claim
Hand shaken for 3 minutes
  Fluralaner Percent Label Claim: 95.36 Percent Label Claim and 102.59 Percent Label Claim and 95.41 Percent Label Claim and 99.43 Percent Label Claim and 108.06 Percent Label Claim and 88.68 Percent Label Claim
Hand shaken for 3 minutes and mixed using a syringe
  Fluralaner Percent Label Claim: 105.95 Percent Label Claim and 104.31 Percent Label Claim and 89.74 Percent Label Claim and 105.87 Percent Label Claim and 104.26 Percent Label Claim and 103.83 Percent Label Claim
Hand shaken for 3 minutes, mixed using a syringe, and vortexed
  Fluralaner Percent Label Claim: 100.86 Percent Label Claim and 106.80 Percent Label Claim and 105.14 Percent Label Claim and 105.86 Percent Label Claim and 106.37 Percent Label Claim and 104.61 Percent Label Claim
